Results taken from US5036008A, “Antitumor antibiotic BU-3285T” (Bristol-Myers Company, priority 1990, dated 1991).
In brackets after ≈: the same amount, converted by molar mass. Read-outs that look alike come from different tables or passages of the source.

How the values were obtained:
[1] = test system: A549/VP29 (etoposide-resistant subline of A549) cells; assay: In vitro cytotoxicity (Table 14); conditions: for IC50: A549/VP29, 72 hours, neutral red
Experimental: (§2) After planting 180 μl of cell suspension into wells of a 96-well microtiter plate on day 0, the test materials (20 μl) were added on day 1 and the plates were incubated for 72 hours. The cytotoxic activity was colorimetrically determined at 540 nm after staining viable cells with neutral red solution.

[2] = test system: B16-F10 (murine melanoma) cells; assay: In vitro cytotoxicity (Table 14); type: cell-based; conditions: Mus musculus
Experimental: (§3) B16-F10 (murine melanoma), HCT-116 (human colon carcinoma), A549 (human lung carcinoma) and A549/VP29 (an etoposide-resistant subline of A549) were grown in Eagle's MEM (Nissui) supplemented with FCS (fetal calf serum, 10%) and non-essential amino acids (B16-F10), or in McCoy's 5A medium (Gibco) with FCS (10%), essential and non-essential amino acids, vitamins and antibiotics (HCT-116 and both of A549) at 37° C. under a humidified atmosphere in a 5% CO2 incubator. Exponentially growing B16-F10, HCT-116 and A549 cells were harvested, counted and suspended in the culture medium at 1.5×10^4, 3×10^4 and 3×10^4 cells/ml, respectively. After planting 180 μl of cell suspension into wells of a 96-well microtiter plate on day 0, the test materials (20 μl) were added on day 1 and the plates were incubated for 72 hours. The cytotoxic activity was colorimetrically determined at 540 nm after staining viable cells with neutral red solution.

[3] = test system: HCT-116 (human colon carcinoma) cells; assay: In vitro cytotoxicity (Table 14); type: cell-based
Experimental: as §3

[4] = test system: A549 (human lung carcinoma) cells; assay: In vitro cytotoxicity (Table 14); type: cell-based
Experimental: as §3

fungi [5] = conditions: reported; cited from earlier work
B16 melanoma = conditions: reported; cited from earlier work
[6] = test system: DNA biosynthesis in L1210 leukemia cells; assay: Inhibition of macromolecule biosynthesis, DNA (Table 15); type: cell-based, murine
Experimental: (§1) Inhibitory effects of the above compounds on macromolecule (DNA, RNA and protein) biosynthesis were determined in cultured L1210 murine leukemia cells. The cells (5×10^5 cells/ml) were incubated with the test materials at 37° C. for 15 minutes and then further incubated for 60 minutes after the addition of labeled precursor, ^3 H-thymidine, ^14 C-uridine or ^3 H-leucine into the cultured mixture. After washing with chilled 5% trichloroacetic acid solution, the radioactivity incorporated into the acid-insoluble fraction of the cells was determined with a liquid scintillation counter.

P388 leukemia = assay: In vivo antitumor activity against P388 leukemia (Table 8); conditions: P388 leukemia in mice
[7] = test system: RNA biosynthesis in L1210 leukemia cells; assay: Inhibition of macromolecule biosynthesis, RNA (Table 15); type: cell-based, murine; conditions: Mus musculus, labeled precursor, 15 min + 60 min, 37° C., read-out: IC50, RNA synthesis
Experimental: as §1

Solubility = type: physicochemical
[8] = test system: murine and human tumor cell lines; assay: In vitro cytotoxicity, overall statement; conditions: murine and human tumor cell lines
Experimental: as §2

[9] = test system: protein biosynthesis in L1210 leukemia cells; assay: Inhibition of macromolecule biosynthesis, protein (Table 15); type: cell-based, murine; conditions: Mus musculus, labeled precursor, 15 min + 60 min, 37° C., read-out: IC50, protein synthesis
Experimental: as §1

fungi [10] = assay: In vitro antifungal activity, overall statement; conditions: various fungi
Experimental: (§4) In vitro antifungal activity was determined against various fungi by the serial agar dilution method. Sabouraud dextrose agar (pH 7.0) was used for the experiment. The inoculum size was adjusted to 10^6 CFU/ml. After incubation at 28° C. for 40 hours, the minimum inhibitory concentration (MIC) was examined.

A. fumigatus IAM2034 = assay: microbe, parasite or virus in culture; conditions: Aspergillus fumigatus, IAM2034, 40 h, pH 7
Experimental: as §4

[11] = test system: Blastomyces dermatidis D40; assay: In vitro antifungal activity, serial agar dilution; conditions: D40, 40 h, pH 7
Experimental: as §4

A. flavus FA21436 = assay: In vitro antifungal activity, serial agar dilution; conditions: Aspergillus flavus, FA21436, 40 h, pH 7
Experimental: as §4

[12] = test system: Cryptococcus neoformans D49; assay: In vitro antifungal activity, serial agar dilution; conditions: D49, 40 h, pH 7
Experimental: as §4

Candida albicans IAM4888 = assay: In vitro antifungal activity, serial agar dilution; conditions: IAM4888, 40 h, pH 7
Experimental: as §4

Mucor spinosus IF05317 = assay: In vitro antifungal activity, serial agar dilution; conditions: IF05317, 40 h, pH 7
Experimental: as §4

[13] = test system: Petriellidium boydii IF08078; assay: In vitro antifungal activity, serial agar dilution; conditions: Scedosporium boydii, IF08078, 40 h, pH 7
Experimental: as §4

[14] = test system: Sporothrix schenckii IF08158; assay: microbe, parasite or virus in culture; conditions: IF08158, 40 h, pH 7
Experimental: as §4

[15] = test system: Trichophyton mentagrophytes D155; assay: In vitro antifungal activity, serial agar dilution; conditions: D155, 40 h, pH 7
Experimental: as §4

[16] = test system: Fusarium moniliforme A2284; assay: In vitro antifungal activity, serial agar dilution; conditions: Fusarium verticillioides, A2284, 40 h, pH 7
Experimental: as §4

T. mentagrophytes #4329 = assay: In vitro antifungal activity, serial agar dilution; conditions: Trichophyton mentagrophytes, 40 h, pH 7
Experimental: as §4

C. neoformans IAM4514 = assay: In vitro antifungal activity, serial agar dilution; conditions: Cryptococcus neoformans, IAM4514, 40 h, pH 7
Experimental: as §4

[17] = test system: Aspergillus fumigatus IAM2530; assay: In vitro antifungal activity, serial agar dilution; conditions: IAM2530, 40 h, pH 7
Experimental: as §4

C. albicans A9540 = assay: In vitro antifungal activity, serial agar dilution; conditions: Candida albicans, A9540, 40 h, pH 7
Experimental: as §4

Piricularia oryzae D91 = assay: microbe, parasite or virus in culture; type: cell-based; conditions: 40 h, pH 7

COc1cc([C@@H]2c3cc4c(cc3[C@@H](O[C@@H]3O[C@@H]5CO[C@@H](C)O[C@H]5[C@H](O)[C@H]3O)[C@H]3COC(=O)[C@H]23)OCO4)cc(OC)c1O [VP16, reference compound]
IC50 [1]: 40 mg/L (≈ 68 µM) | IC50 ([2]; B16-F10, 72 h): 0.21 mg/L (≈ 0.357 µM) | IC50 ([3]; HCT-116, 72 h): 5.3 mg/L (≈ 9 µM) | IC50 ([4]; A549, 72 h): 1.2 mg/L (≈ 2.04 µM)

C[C@@](O)(/C=C/[C@H]1CC=CC(=O)O1)[C@@H](C[C@@H](O)\C=C/C=C\C=C\CO)OP(=O)(O)O [fostriecin]
antifungal activity (fungi [5]): no antifungal activity | antitumor effect against B16 melanoma (B16 melanoma): no antitumor effect against B16 melanoma

CCCCC/C=C/C=C\C=C/C(O)C(C)C(O)C/C=C/C1OC(=O)C=CC1O (stereo not shown) [BU-3285T desulfate]
IC50 ([6]; Mus musculus, L1210, labeled precursor, 15 min + 60 min, 37° C., read-out: IC50, DNA synthesis): > 100 mg/L | inhibitory effect on DNA synthesis ([6]; at 100 μg/ml, the highest concentration tested): no significant inhibitory effect | in vivo antitumor activity (P388 leukemia): not active | IC50 [7]: 6.1 mg/L | solubility in acetone (Solubility; acetone): soluble | solubility in carbon tetrachloride (Solubility; carbon tetrachloride): insoluble | solubility in dimethyl sulfoxide (Solubility; dimethyl sulfoxide): soluble | solubility in ethanol (Solubility; ethanol): soluble | solubility in methanol (Solubility; methanol): soluble | solubility in n-hexane (Solubility; n-hexane): insoluble | solubility in water (Solubility; water): slightly soluble | IC50 [1]: 15 mg/L (≈ 38.4 µM) | cytotoxicity against resistant A549/VP29 compared with parent cell line ([1]; vs A549 parent): almost the same cytotoxicity | cytotoxicity in vitro [8]: quite active | IC50 [9]: 8.1 mg/L | IC50 ([2]; B16-F10, 72 hours, neutral red, read-out: IC50): 14 mg/L (≈ 35.8 µM) | IC50 ([3]; HCT-116, 72 hours, neutral red, read-out: IC50): 5.5 mg/L (≈ 14.1 µM) | antifungal activity in vitro (fungi [10]): no activity against fungi in vitro | IC50 ([4]; A549, 72 hours, neutral red, read-out: IC50): 13 mg/L (≈ 33.3 µM)

CC(=O)N1CCN(c2ccc(OCC3COC(Cn4ccnc4)(c4ccc(Cl)cc4Cl)O3)cc2)CC1 (stereo not shown) [Ketoconazole]
MIC (A. fumigatus IAM2034): 6.3 mg/L (≈ 11.9 µM) | MIC [11]: 0.4 mg/L (≈ 0.753 µM) | MIC (A. flavus FA21436): 0.4 mg/L (≈ 0.753 µM) | MIC [12]: 0.4 mg/L (≈ 0.753 µM) | MIC (Candida albicans IAM4888): 50 mg/L (≈ 94.1 µM) | MIC (Mucor spinosus IF05317): 100 mg/L (≈ 188 µM) | MIC [13]: 1.6 mg/L (≈ 3.01 µM) | MIC [14]: 6.3 mg/L (≈ 11.9 µM) | MIC [15]: 1.6 mg/L (≈ 3.01 µM) | MIC [16]: 6.3 mg/L (≈ 11.9 µM) | MIC (T. mentagrophytes #4329): 1.6 mg/L (≈ 3.01 µM) | MIC (C. neoformans IAM4514): 0.4 mg/L (≈ 0.753 µM) | MIC [17]: 3.1 mg/L (≈ 5.83 µM) | MIC (C. albicans A9540): 50 mg/L (≈ 94.1 µM) | MIC (Piricularia oryzae D91): 3.1 mg/L (≈ 5.83 µM)
